Experimental data as given in patent US8343912B2, “Antibiotic compositions for the treatment of gram negative infections” (priority 2008, dated 2013).
≈ marks a conversion by molar mass, not a printed value. Marks after values point to notes of the source that are not given here. Numbered stars: 1 amine (or outer) side, 2 acyl side, 3 side chain; on linkers, the order of the positions; unused ones are H or OH. Bridge positions count the residues as written; N and C are the ends. Square brackets hold non-standard residues; d marks the D form. Peptide text beside a SMILES is read from it. * marks the point of attachment. NH(3-Cl-phenyl) = Clc1cccc(N*)c1; NH(2-ClPh) = Clc1ccccc1N*; Dab = NCC[C@H](N)C(=O)O; CO = O=C([*:1])[*:2]

Assays:
[1] = Cell culture cytotoxicity assay (ATP bioluminescence, LLC-PK1); format: cell-based, rat; conditions: read-out: EC50, rat kidney proximal tubule cell culture cytotoxicity assay
Experimental: (§1) Day 1: 1×10^5 to 2×10^5 cellswere inoculated (Cell line: LLC-PK1) per flask, containing 4 mL/T25 flask of medium DMEM-F12 (50/50) media supplemented with 10% FBS (Fetal Bovine Serum). The cells were then incubated at 37° C., 5% CO2, 80% RH.
(§2) Day 4: The cell cultures were examined to determine 80% confluency. To trypsinize of the 80% confluent flasks, 4 mL of DMEM-F12-10% FBS media was prepared per flask. The media was aspirated from the flask and 5 mL of Versene was added to rinse the flask. The Versene was aspirated and 2 mL of triple Express solution (trypsin solution) was added. The cells were incubated for 5 min at room temperature and examined via microscopy for the rounding of the cells and their detachment. To speed up the reaction, the flask can be incubated at 37° C. for 3 minutes. 4 mL of media (DMEM-F12-10%FBS) was added to stop the reaction. Using a 5 mL pipette, the completed reaction was pipetted up and down to ensure that the cells were properly detached from the flask and from each others. The cell number was counted using a hemocytometer slide. 100 μL of cell suspension was transferred to a tube and 100 μL of Trypan Blue was added. Inoculum for 96 well is 10,000 cells per well. For one 96 well plate, 26.3 μL×110 well=2893 μL total. 2.9 mL of cell suspension was mixed with 8.1 mL of media DMEM-F12-10% FBS and 100 μL was distributed to each well using a multichannel pipetter. The plate was then Incubated for 24 h at 37° C.
(§3) Day 5: DMEM-F12 (no FBS) medium was dispensed into tubes with the test article to achieve final concentrations of […]. The 96 well plate was taken off the incubator and media was removed from each well using multichannel pipetter. 80 μL of serially diluted compounds of Formula (I) was added to each well. Every set of concentration was done in triplicate. Media and positive controls were added to each plate and the plates were incubated for 24 hours at 37° C.
(§4) Day 6: The plates were taken from the incubator, the media was removed from each well, and 100 μL of fresh media DMEM-F12 (this is equivalent to a rinse and the media can be replaced with PBS) was added. The media is then removed and 80 μL of cell lysis solution is added. After 5 minutes, 80 μL of sterile filtered high quality water was added to each well. Using a white or black 96 well reaction plate, 80 μL of 25× diluted ATP mix reagent (Sigma Bioluminescent Somatic Cell Assay Kit [cat #FL-ASC]) was added into one column. 80 μL of diluted ATP standards (dilutions used: 250, 500, 1000, 2000 and 4000) was added and the plate was read immediately in the topcount with a 2 second read time. In another white or black 96 well reaction plate, 80 μL of 25× diluted ATP mix reagent (plate A) was added and 80 μL of lysis-water solution was transferred to each column of plate A. The plate was then read immediately in the topcount with a 2 second read time. This process was repeated for next consecutive plate and the EC50 for certain compounds of Formula I were calculated and provided in Table 4.

[2] = tested on: P. aeruginosa; assay: MIC, broth microdilution (Table 4); format: cell-based, Pseudomonas aeruginosa; conditions: for MIC P. aeruginosa: Table 4
Experimental: (§5) MIC testing was performed according to Clinical and Laboratory Standards Institute (CLSI) M7-A7 (2006) broth microdilution methods. Unless otherwise indicated, MIC values are provided in units of micrograms per milliliter.
(§6) One day prior to testing, individual colonies were isolated by streaking onto rich, non-selective Tryptic Soy agar with 5% lysed sheeps blood (TSAB) with incubation at 35-37° C. for 18-24 hours.
(§7) Cultures were prepared by touching 3-5 colonies into 3 mL of Cation adjusted Mueller Hinton Broth (caMHB) in a 14 mL tube (CaMHB was prepared and sterilized according to manufacturer's specifications). Cultures were grown at 37° C. 200 rpm for approximately four hours prior to density adjustment for addition to the MIC assay.
(§8) OD600 of growing cultures was measured and adjusted to approximately 10^5 colony forming units per mL (CFU/mL) in caMHB for MIC inoculation (approximately OD600 0.001).
(§9) Diluted cultures were used to inoculate 50 μL per well in broth microdilution assays (final volume 100 μl per well; compounds were prepared in two-fold dilutions).
(§10) Plates were incubated 16-20 hrs at 37° C., with shaking at 200 rpm.
(§11) OD600 was determined for all wells. Growth was defined as OD600>0.1. MICs were defined as the lowest concentration producing no visible turbidity (OD600<0.1).

[3] = tested on: Citrobacter spp.; assay: MIC90, broth microdilution, panel of Gram negative clinical isolates; format: cell-based; conditions: 20 strains; some strains multi-drug resistant
Experimental: (§12) To evaluate the potency and spectrum of compounds of Formula (I), (i.e., Compounds designated 5 and 6), a study was conducted that put together a panel of 455 Gram negative strains, which included multi-drug resistant clinical isolates selected from various surveillance programs. Table 3A lists the strains that were included in the study and the activity of Compound 5, Compound 6, and colistin (polymyxin E, abbreviated PME). Strains with acquired resistance to colistin and/or carbapenems and/or broad spectrum cephalosporins were pre-selected and included in all organism groups evaluated.
as §5, §6, §7, §8, §9, §10, §11

[4] = tested on: Enterobacter; assay: as above; format: cell-based; conditions: 20 strains; some strains multi-drug resistant
Experimental: as §12, §5, §6, §7, §8, §9, §10, §11

[5] = tested on: Acinetobacter spp; assay: as above; format: cell-based; conditions: 81 strains
Experimental: as §12, §5, §6, §7, §8, §9, §10, §11

[6] = tested on: K. pneumonia; assay: as above; format: cell-based, Klebsiella pneumoniae; conditions: 81 strains; some strains multi-drug resistant
Experimental: as §12, §5, §6, §7, §8, §9, §10, §11

[7] = tested on: P. aeruginosa; assay: as above; format: cell-based, Pseudomonas aeruginosa; conditions: for MIC90 P. aeruginosa: 100 strains
Experimental: as §12, §5, §6, §7, §8, §9, §10, §11

[8] = tested on: Acinetobacter baumannii 1570; assay: MIC, broth microdilution; format: cell-based; conditions: Table 8; range of repeated tests
Experimental: as §5, §6, §7, §8, §9, §10, §11
(§13) A. baumannii #1570 were grown in cation adjusted Mueller Hinton Broth (caMHB) (catalog #B12322; Fisher Scientific, Pittsburgh, Pa.) at 37° C. MIC testing was performed according to Clinical and Laboratory Standards Institute [CLSI, formerly National Committee for Clinical Laboratory Standards (NCCLS), Wayne, Pa.] guidelines for broth microdilution.
(§14) MIC testing was performed according to CLSI (formerly NCCLS) guidelines for broth microdilution.

[9] = tested on: S. maltophilia; assay: MIC90, broth microdilution, panel of Gram negative clinical isolates; format: cell-based, Stenotrophomonas maltophilia; conditions: 25 strains
Experimental: as §12, §5, §6, §7, §8, §9, §10, §11

[10] = tested on: patients; conditions: human, in vivo; cited from earlier work
[11] = tested on: P. aeruginosa #44; assay: MIC, broth microdilution; format: cell-based, Pseudomonas aeruginosa; conditions: Table 5; range of repeated tests
Experimental: as §5, §6, §7, §8, §9, §10, §11
as §13, with “P. aeruginosa #44 or K. pneumoniae #21” for “A. baumannii #1570”
as §14

[12] = tested on: E. coli; assay: MIC90, broth microdilution, panel of Gram negative clinical isolates; format: cell-based, Escherichia coli; conditions: 80 strains; some strains multi-drug resistant
Experimental: as §12, §5, §6, §7, §8, §9, §10, §11

[13] = tested on: Rat kidney proximal tubule cells; assay: Cell culture cytotoxicity assay (ATP bioluminescence, LLC-PK1); format: cell-based; conditions: LLC-PK1, 24 hours, ATP readout
Experimental: as §1, §2, §3, §4

Molecule: CC(C)C[C@@H]1NC(=O)[C@@H](Cc2ccccc2)NC(=O)[C@H](CCN)NC(=O)[C@@H](NC(=O)[C@H](CCN)NC(=O)[C@@H](NC(=O)[C@H](CCN)NC(=O)Nc2cccc(Cl)c2)[C@@H](C)O)CCNC(=O)[C@H]([C@@H](C)O)NC(=O)[C@H](CCN)NC(=O)[C@H](CCN)NC1=O [Compound 4] ({NH(3-Cl-phenyl)-CO}-[Dab]T[Dab][Dab][Dab][dF]L[Dab][Dab]T; lactam 4-C)
- EC50 [1]: 691 µg/mL (≈ 568 µM)
- activity against bacteria compared with polymyxin B [2]: as active or more active
- MIC P. aeruginosa [2]: 2 micrograms/ml

Molecule: colistin [reference compound]
- MIC90 Citrobacter spp. [3]: 0.5* micrograms/mL
- MIC90 Enterobacter [4]: >64* micrograms/mL
- MIC90 Acinetobacter spp [5]: 4 micrograms/mL
- MIC90 K. pneumonia [6]: 4* micrograms/mL
- MIC90 P. aeruginosa [7]: 2 micrograms/mL
- MIC against A. baumannii #1570 [8]: 2 micrograms/ml
- MIC90 S. maltophilia [9]: 16 micrograms/mL
- overall incidence of neurotoxicity or neuropathy [10]: 7.3%
- MIC against P. aeruginosa #44 [11]: 2-4 micrograms/ml
- MIC90 E. coli [12]: 2* micrograms/mL

Molecule: CC[C@H](C)[C@@H]1NC(=O)[C@@H](Cc2ccccc2)NC(=O)[C@H](CCN)NC(=O)[C@@H](NC(=O)[C@H](CCN)NC(=O)[C@@H](NC(=O)[C@H](CCN)NC(=O)Nc2ccccc2Cl)[C@@H](C)O)CCNC(=O)[C@H]([C@@H](C)O)NC(=O)[C@H](CCN)NC(=O)[C@H](CCN)NC1=O [Compound 6] ({NH(2-ClPh)-CO}-[Dab]T[Dab][Dab][Dab][dF]I[Dab][Dab]T; lactam 4-C)
- MIC90 Citrobacter spp. [3]: 1 micrograms/mL
- MIC90 Enterobacter [4]: >16 micrograms/mL
- MIC90 Acinetobacter spp [5]: 2 micrograms/mL
- MIC90 K. pneumonia [6]: 4 micrograms/mL
- MIC90 P. aeruginosa [7]: 8 micrograms/mL
- decrease in activity against colistin susceptible P. aeruginosa ([7]; relative to colistin / Compound 5): approximately 4 fold
- MIC90 S. maltophilia [9]: 16 micrograms/mL
- EC50 [1]: > 1000 µg/mL
- EC50 Rat kidney proximal tubule cells [13]: >1000 micrograms/ml
- activity against bacteria compared with polymyxin B [2]: as active or more active
- MIC P. aeruginosa [2]: 1 micrograms/ml
- MIC90 E. coli [12]: 4 micrograms/mL
